We go through 49 substances from US10517889B2, “Modulators of SMAD7 expression” (Ionis Pharmaceuticals, Inc., priority 2017, dated 2019).

A word on the % Inhibition: it is the share of the control response that was lost under treatment. A high value points to a response far below the control.

Strand notation (5' to 3'): a small letter for the sugar, then the base; units joined by * are phosphorothioate-linked, units joined directly phosphodiester-linked; [ ] holds rarer units or linkages, { } end groups; capitals alone tell only the bases. k = constrained ethyl (cEt); [5mC] = 5-methylcytosine; d = 2'-deoxy (DNA)

The test system of the first series is human SMAD7 mRNA. Briefly: Antisense inhibition of human SMAD7 mRNA expression in Hep3B cells by 3-10-3 cEt gapmers, 10,000 nM, electroporation (Example 2). In kind it is cell-based. The note with it: Hep3B cells, electroporation with 10,000 nM antisense oligonucleotide, approximately 24 hours, SMAD7 mRNA by RT-PCR (RTS5062), relative to untreated control cells. Summed up: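 Hep3B, 20,000 cells/well; electroporation, 10,000 nM ASO; ~24 h. Readout: SMAD7 mRNA by qRT-PCR (RTS5062), RIBOGREEN-normalised; % inhibition vs untreated.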
As for “799431 (antisense kG*kA*k[5mC]*dA*dG*d[5mC]*d[5mC]*dA*d[5mC]*dA*dA*dG*dT*k[5mC]*kA*k[5mC]) [compound 799431]”, the “% Inhibition” value is recorded as 39%. For the substance “799432 (antisense kT*kG*kA*d[5mC]*dA*dG*d[5mC]*d[5mC]*dA*d[5mC]*dA*dA*dG*kT*k[5mC]*kA) [compound 799432]”, the “% Inhibition” value came to 7%.

Regarding “799433 (antisense kT*kT*k[5mC]*dT*dT*dG*dT*dG*dG*dG*dA*dT*dG*kT*kG*kG) [compound 799433]”, the “% Inhibition” value is 56%. Turning to “799434 (antisense kT*kG*kA*dA*dA*d[5mC]*dA*d[5mC]*dG*dG*dG*dA*dA*kG*k[5mC]*kA) [compound 799434]”, the “% Inhibition” value is reported as 37%. As to “799435 (antisense kT*k[5mC]*k[5mC]*dT*d[5mC]*dA*dA*dA*d[5mC]*d[5mC]*dT*dT*dT*k[5mC]*kA*kG) [compound 799435]”, the “% Inhibition” value worked out at 60%.

Consider “799446 (antisense kG*kA*k[5mC]*d[5mC]*dT*dA*dA*dT*d[5mC]*dT*d[5mC]*dT*dT*kT*k[5mC]*kA) [compound 799446]”, for which the “% Inhibition” value was found to be 48%. For the substance “799447 (antisense kA*kT*kG*dA*dA*dT*dG*dA*d[5mC]*d[5mC]*dT*dA*dA*kT*k[5mC]*kT) [compound 799447]”, the “% Inhibition” value is 30%. As for “799448 (antisense kG*kT*kA*dA*dA*dA*dT*dG*dA*dA*dT*dG*dA*k[5mC]*kT*kG) [compound 799448]”, the “% Inhibition” value is 41%. Regarding “799449 (antisense k[5mC]*kA*kG*d[5mC]*dA*d[5mC]*dT*dG*d[5mC]*dA*dT*d[5mC]*dG*kG*kA*kA) [compound 799449]”, the “% Inhibition” value was found to be 37%. Consider “799450 (antisense kA*kA*kG*dA*dA*d[5mC]*dA*d[5mC]*dA*dG*d[5mC]*dA*d[5mC]*kT*kG*k[5mC]) [compound 799450]”, for which the “% Inhibition” value is listed as 53%.

Turning to “799451 (antisense kA*kA*kA*dG*dA*dA*d[5mC]*dA*d[5mC]*dA*dG*d[5mC]*dA*k[5mC]*kT*kG) [compound 799451]”, the “% Inhibition” value is listed as 41%. Take “799452 (antisense kA*kA*kA*dA*dG*dA*dA*d[5mC]*dA*d[5mC]*dA*dG*d[5mC]*kA*k[5mC]*kT) [compound 799452]”: the “% Inhibition” value stood at 44%. With “799453 (antisense kA*k[5mC]*kA*d[5mC]*dA*dG*d[5mC]*dA*d[5mC]*dT*dG*d[5mC]*d[5mC]*kA*kG*kG) [compound 799453]”, the “% Inhibition” value was 58%. Take “799454 (antisense kT*kT*kA*dA*dA*dG*dA*d[5mC]*dA*dG*dA*dG*dG*kA*kG*k[5mC]) [compound 799454]”: the “% Inhibition” value was found to be 55%. On to “799455 (antisense kT*kG*kT*dT*dA*dA*dA*dG*dA*d[5mC]*dA*dG*dA*kG*kG*kA) [compound 799455]”, for which the “% Inhibition” value turned out to be 55%. Take “799466 (antisense kG*kA*k[5mC]*dA*dG*dA*dA*dG*d[5mC]*dT*d[5mC]*dT*dA*kG*kG*k[5mC]) [compound 799466]”: the “% Inhibition” value is listed as 53%. Consider “799468 (antisense kT*k[5mC]*kA*d[5mC]*d[5mC]*dT*dT*dA*dG*dG*d[5mC]*d[5mC]*dT*kG*kT*kG) [compound 799468]”, for which the “% Inhibition” value stood at 22%.

For “799469 (antisense k[5mC]*kT*k[5mC]*d[5mC]*dG*d[5mC]*dA*dT*dA*dG*dA*d[5mC]*dA*kG*kA*kT) [compound 799469]”, the “% Inhibition” value was determined as 69%.

Take “799470 (antisense kA*kA*kA*dA*dG*d[5mC]*dT*d[5mC]*d[5mC]*dG*d[5mC]*dA*dT*kA*kG*kA) [compound 799470]”: the “% Inhibition” value was 10%. On the same count and under the same terms, then “799472 (antisense kA*kG*k[5mC]*d[5mC]*dA*dT*dA*d[5mC]*d[5mC]*dT*d[5mC]*d[5mC]*dA*kT*k[5mC]*kT) [compound 799472]”, with 31%. Consider “799473 (antisense kT*kA*kT*d[5mC]*d[5mC]*d[5mC]*dA*dT*dG*dG*d[5mC]*dT*d[5mC]*kT*k[5mC]*kA) [compound 799473]”, for which the “% Inhibition” value stood at 63%. In the case of “799474 (antisense k[5mC]*kA*kA*dG*dA*dG*dT*d[5mC]*d[5mC]*dA*dG*d[5mC]*d[5mC]*k[5mC]*kT*kA) [compound 799474]”, the “% Inhibition” value is 39%. Consider “799475 (antisense kG*kT*kG*dA*dG*d[5mC]*dT*dG*dG*dG*d[5mC]*dT*dA*kT*kT*k[5mC]) [compound 799475]”, for which the “% Inhibition” value is on record as 51%.

Still in this series, the particulars now being: Hep3B cells, electroporation with 10,000 nM antisense oligonucleotide, approximately 24 hours, primer probe set RTS5062, relative to untreated control cells.
In the case of “799436 (antisense kA*kG*k[5mC]*d[5mC]*dA*dT*dT*d[5mC]*d[5mC]*dT*d[5mC]*dA*dA*kA*k[5mC]*k[5mC]) [compound 799436]”, the “% inhibition of SMAD7 mRNA expression” value amounted to 4%. Still for that read-out and setting: then “799437 (antisense k[5mC]*k[5mC]*kA*dG*dA*dT*d[5mC]*dT*d[5mC]*dA*dG*dG*dT*k[5mC]*kA*kA) [compound 799437]”, with 26%. As for “799438 (antisense kA*kA*kG*dA*dG*dA*dG*dA*dA*dA*d[5mC]*dG*d[5mC]*kA*kG*kT) [compound 799438]”, the “% inhibition of SMAD7 mRNA expression” value is 32%.

Regarding “799439 (antisense kA*kA*kG*dA*dG*dG*dG*dA*d[5mC]*d[5mC]*dT*d[5mC]*dG*kG*kT*kT) [compound 799439]”, the “% inhibition of SMAD7 mRNA expression” value is listed as 0%. With “799440 (antisense kT*kA*kG*dA*dA*dA*dA*dG*dT*dT*dA*dA*dG*kA*kG*kG) [compound 799440]”, the “% inhibition of SMAD7 mRNA expression” value came out at 41%. “799441 (antisense k[5mC]*kT*kA*dG*dA*dA*dA*dA*dG*dT*dT*dA*dA*kG*kA*kG) [compound 799441]”: the “% inhibition of SMAD7 mRNA expression” value was 22%. Regarding “799442 (antisense kG*kA*kT*dT*dT*dT*dA*dA*dA*dA*dG*dA*dG*kG*k[5mC]*k[5mC]) [compound 799442]”, the “% inhibition of SMAD7 mRNA expression” value was found to be 0%. “799443 (antisense kT*k[5mC]*kA*dT*dG*d[5mC]*dT*dG*dA*dT*dT*dT*dT*kA*kA*kA) [compound 799443]”: the “% inhibition of SMAD7 mRNA expression” value came out at 24%. On the same count and under the same terms, as for “799444 (antisense k[5mC]*kA*kT*d[5mC]*dA*dT*dG*d[5mC]*dT*dG*dA*dT*dT*kT*kT*kA) [compound 799444]”, the figure is 45%; as for “799445 (antisense k[5mC]*k[5mC]*kT*dA*dA*dT*d[5mC]*dT*d[5mC]*dT*dT*dT*d[5mC]*kA*kT*k[5mC]) [compound 799445]”, 28%; as for “799456 (antisense kT*k[5mC]*k[5mC]*dT*dA*dA*dG*dT*dA*d[5mC]*dT*dG*dT*kT*kA*kA) [compound 799456]”, 0%. In the case of “799457 (antisense k[5mC]*kA*k[5mC]*dG*dA*dT*dA*dG*dT*d[5mC]*dT*d[5mC]*dA*kG*k[5mC]*kA) [compound 799457]”, the “% inhibition of SMAD7 mRNA expression” value is recorded as 62%. On the same count and under the same terms, as for “799458 (antisense kT*kT*kG*dA*dA*dA*dA*d[5mC]*d[5mC]*d[5mC]*dA*dA*d[5mC]*k[5mC]*k[5mC]*kT) [compound 799458]”, the figure is 3%; as for “799459 (antisense kA*k[5mC]*kA*dG*dA*dG*dT*d[5mC]*dT*dT*dT*dG*dA*kA*kA*kA) [compound 799459]”, 0%. As for “799460 (antisense k[5mC]*kA*kA*d[5mC]*dA*dG*dA*dG*dT*d[5mC]*dT*dT*dT*kG*kA*kA) [compound 799460]”, the “% inhibition of SMAD7 mRNA expression” value turned out to be 29%. Same read-out and setting: as for “799461 (antisense k[5mC]*kT*kG*d[5mC]*dG*dA*dG*dA*dG*dA*dA*dA*dA*kA*kG*kA) [compound 799461]”, the figure is 62%; as for “799462 (antisense kA*kA*kG*d[5mC]*dA*d[5mC]*dT*dA*dG*dG*dT*dT*d[5mC]*kT*kG*k[5mC]) [compound 799462]”, 43%.

On to “799463 (antisense kT*kG*kG*dT*dA*dA*dG*d[5mC]*dA*d[5mC]*dT*dA*dG*kG*kT*kT) [compound 799463]”, for which the “% inhibition of SMAD7 mRNA expression” value worked out at 33%.

In the case of “799464 (antisense kA*kA*kG*d[5mC]*dA*d[5mC]*dT*dT*dG*dG*dT*dA*dA*kG*k[5mC]*kA) [compound 799464]”, the “% inhibition of SMAD7 mRNA expression” value is on record as 40%.

As to “799465 (antisense kA*kG*k[5mC]*dT*d[5mC]*dT*dA*dG*dG*d[5mC]*d[5mC]*dA*d[5mC]*kT*k[5mC]*k[5mC]) [compound 799465]”, the “% inhibition of SMAD7 mRNA expression” value turned out to be 64%. The same measure, in the same setting: as for “799476 (antisense kG*k[5mC]*kT*d[5mC]*dA*dA*dA*dG*dG*dG*d[5mC]*d[5mC]*dA*k[5mC]*k[5mC]*k[5mC]) [compound 799476]”, the figure is 0%.

For the substance “799477 (antisense kG*kT*kT*d[5mC]*d[5mC]*dA*dT*dA*dG*dG*d[5mC]*dA*dG*k[5mC]*k[5mC]*kA) [compound 799477]”, the “% inhibition of SMAD7 mRNA expression” value was found to be 4%. As for “799478 (antisense k[5mC]*k[5mC]*k[5mC]*dT*dA*d[5mC]*d[5mC]*dA*d[5mC]*d[5mC]*d[5mC]*d[5mC]*dT*kG*kT*kG) [compound 799478]”, the “% inhibition of SMAD7 mRNA expression” value was 17%.

Consider “799479 (antisense kT*kG*k[5mC]*d[5mC]*d[5mC]*dT*dT*d[5mC]*dT*dG*d[5mC]*dA*dG*kT*kG*kG) [compound 799479]”, for which the “% inhibition of SMAD7 mRNA expression” value was found to be 24%. For “799480 (antisense k[5mC]*kA*k[5mC]*dA*d[5mC]*dA*dG*dG*d[5mC]*dA*dA*d[5mC]*d[5mC]*kA*k[5mC]*kA) [compound 799480]”, the “% inhibition of SMAD7 mRNA expression” value came out at 45%.

Take “799481 (antisense k[5mC]*kT*k[5mC]*d[5mC]*dA*d[5mC]*dA*d[5mC]*dA*dG*dG*d[5mC]*dA*kA*k[5mC]*k[5mC]) [compound 799481]”: the “% inhibition of SMAD7 mRNA expression” value is given as 34%.
